Values of other authors in patent US8828977B2, “Method of treating a subject suffering from degenerative disc disease using a matrix metalloprotease inhibitor” (priority 2006, dated 2014).
Values after ≈ are worked out from the molar mass of the structure shown. Like-named read-outs stand apart in the source and are kept apart here. One block for each compound: values may come before it.

Columns and labels:
[1] = target: T1, MMP-2 (Homo sapiens, UniProt P08253)
T1 sequence (P08253 110-660): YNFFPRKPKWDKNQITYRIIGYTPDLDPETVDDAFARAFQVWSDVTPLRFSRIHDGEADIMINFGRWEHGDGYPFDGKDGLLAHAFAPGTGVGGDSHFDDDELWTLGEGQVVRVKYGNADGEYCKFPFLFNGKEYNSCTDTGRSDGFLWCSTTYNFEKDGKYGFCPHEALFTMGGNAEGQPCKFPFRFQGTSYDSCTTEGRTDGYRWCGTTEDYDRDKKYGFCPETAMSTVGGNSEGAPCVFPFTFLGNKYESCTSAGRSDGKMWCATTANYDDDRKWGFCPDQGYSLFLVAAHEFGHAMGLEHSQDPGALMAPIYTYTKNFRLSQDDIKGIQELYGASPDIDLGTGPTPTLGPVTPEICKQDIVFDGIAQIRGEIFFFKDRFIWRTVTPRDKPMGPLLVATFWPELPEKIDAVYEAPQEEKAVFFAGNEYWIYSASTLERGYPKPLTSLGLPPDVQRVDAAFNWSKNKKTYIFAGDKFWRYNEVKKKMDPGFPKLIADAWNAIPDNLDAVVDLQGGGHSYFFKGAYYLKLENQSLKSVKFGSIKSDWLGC

[2] = test system: panel of prostate cancer cell lines; conditions: MTT assays
[3] = test system: immune responses; conditions: in vivo
[4] = mice
[5] = target: T1, MMP-2; conditions: of the seven CMTs evaluated, zymography
[6] = target: MMP-9 (Homo sapiens, UniProt P14780); conditions: of the seven CMTs evaluated, zymography
Chain of MMP-9 (P14780 94-707): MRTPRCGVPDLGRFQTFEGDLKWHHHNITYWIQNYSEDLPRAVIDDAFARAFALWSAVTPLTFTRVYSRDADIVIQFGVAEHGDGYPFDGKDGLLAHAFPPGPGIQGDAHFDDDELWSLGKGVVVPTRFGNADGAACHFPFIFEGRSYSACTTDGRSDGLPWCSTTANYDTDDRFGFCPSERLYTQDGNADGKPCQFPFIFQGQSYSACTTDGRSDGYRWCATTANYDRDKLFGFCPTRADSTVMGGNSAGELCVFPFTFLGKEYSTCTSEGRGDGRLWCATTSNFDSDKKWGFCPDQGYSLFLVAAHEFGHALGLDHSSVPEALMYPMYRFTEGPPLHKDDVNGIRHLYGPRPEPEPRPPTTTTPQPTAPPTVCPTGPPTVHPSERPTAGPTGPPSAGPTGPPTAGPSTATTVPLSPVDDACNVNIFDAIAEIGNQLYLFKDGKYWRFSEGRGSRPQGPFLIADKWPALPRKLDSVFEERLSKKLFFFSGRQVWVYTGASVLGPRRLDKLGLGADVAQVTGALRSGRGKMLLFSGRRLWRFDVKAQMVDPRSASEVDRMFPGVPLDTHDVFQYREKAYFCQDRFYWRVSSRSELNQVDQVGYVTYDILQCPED

[7] = test system: human melanoma cell line; conditions: activity comparable to doxycycline
[8] = test system: rheumatoid arthritis synoviocytes; conditions: activity comparable to doxycycline
[9] = test system: prostate cancer cell lines
[10] = test system: human umbilical vein endothelial cells (HUVECs); conditions: HUVECs stimulated with angiogenic factors in vitro
[11] = test system: HUVEC; conditions: in vitro
[12] = test system: metastatic melanoma cells; conditions: metastatic melanoma cells in vitro
[13] = test system: iNOS mRNA
[14] = target: T2, COX-2 (Homo sapiens, UniProt P35354); conditions: in vitro
T2 sequence (P35354 18-604): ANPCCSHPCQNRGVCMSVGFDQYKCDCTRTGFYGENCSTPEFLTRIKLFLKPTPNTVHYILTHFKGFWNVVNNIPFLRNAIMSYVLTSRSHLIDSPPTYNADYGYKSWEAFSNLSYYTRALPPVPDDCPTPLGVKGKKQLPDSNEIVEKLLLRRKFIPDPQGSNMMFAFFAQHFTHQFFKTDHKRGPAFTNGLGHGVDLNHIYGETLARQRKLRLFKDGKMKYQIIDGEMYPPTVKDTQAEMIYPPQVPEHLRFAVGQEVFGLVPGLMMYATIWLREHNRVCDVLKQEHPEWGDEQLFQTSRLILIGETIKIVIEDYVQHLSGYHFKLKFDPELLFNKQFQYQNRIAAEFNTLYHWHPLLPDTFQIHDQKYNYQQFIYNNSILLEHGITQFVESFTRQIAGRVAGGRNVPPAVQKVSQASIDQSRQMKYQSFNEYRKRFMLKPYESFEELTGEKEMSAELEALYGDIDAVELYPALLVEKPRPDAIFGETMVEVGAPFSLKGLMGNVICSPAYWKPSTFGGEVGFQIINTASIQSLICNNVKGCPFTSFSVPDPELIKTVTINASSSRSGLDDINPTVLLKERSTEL

[15] = test system: lung foci (experimental metastasis); conditions: SCID mice
[16] = test system: Dunning MatLyLu rat prostate tumor
[17] = stability and solubility inversely related
[18] = rats, single oral dose of suspension
[19] = rats
[20] = not given; remark: listed apart in the source
[21] = 18 KS patients, sampling lasted only 24 h
[22] = two dose-escalation studies in humans
[23] = not given; remark: listed apart in the source
[24] = 142 animals, daily gavage 40 mg/kg for 7 days
[25] = monkeys, any dosing schedule, after three to five doses
[26] = test system: refractory metastatic cancers
[27] = test system: AIDS-associated Kaposi's sarcoma
[28] = non-competitive component, read-out: Ki′ (the dissociation equilibrium constant) value for MMP-2
[29] = 35 patients with refractory metastatic cancers

Ki [1, 28]: 144 µM
effect on immune responses [3]: moderately inhibit immune responses
Compound: C[C@H]1c2cccc(O)c2C(=O)C2=C(O)[C@]3(O)C(=O)C(C(N)=O)=C(O)[C@@H](N(C)C)[C@@H]3[C@@H](O)[C@@H]21 [doxycycline]
cytotoxicity [2]: significantly cytotoxic
hepatotoxic effect [4]: hepatotoxic effect

Compound: NC(=O)C1=C(O)C[C@@H]2C[C@@H]3Cc4cccc(O)c4C(=O)C3=C(O)[C@]2(O)C1=O [CMT-3]
Ki ([1]; competitive component, read-out: dissociation binding constant (Ki) value for MMP-2): 74 µM
Ki [1, 28]: 148 µM
rank as MMP-2 inhibitor [5]: most effective MMP-2 inhibitor
rank as MMP-9 inhibitor [6]: second most potent MMP-9 inhibitor
inhibiting the in vitro invasive ability [7]: most active
inhibiting the in vitro invasive ability [8]: most active
cytotoxicity [2]: significantly cytotoxic
apoptosis, necrosis and cell-cycle arrest ([9]; added to prostate cell lines in vitro): increased apoptosis and necrosis as well as cell-cycle arrest
time of exposure to apoptosis induction ([9]; prostate cancer cell lines): ≤ 4 h
induction of apoptosis ([9]; prostate cancer cell lines, concentration-dependent): induced apoptosis
microtubule formation [10]: inhibited microtubule formation
HUVEC proliferation [11]: inhibited HUVEC proliferation
vascular mimicry [12]: inhibited this mechanism
iNOS mRNA degradation [13]: increases iNOS mRNA degradation
COX-2 enzyme activity [14]: inhibit COX-2 enzyme activity
metastatic invasion compared with control animals ([15]; higher dose 100 mg/kg): did not significantly impact
number of lung foci ([15]; orally at 40 mg/kg): significantly reduced
instances of lung metastases ([16]; daily gavage at 40 mg/kg for 7 days, controls 59.5±13.9): 28.9±15.4 tumors/animal
decrease of primary tumor incidence ([16]; pre-dosing the rats for 7 days): 55±9%
delay of tumor growth ([16]; pre-dosing the rats for 7 days): 27±9.3%
reduction in metastases ([16]; pre-dosing the rats for 7 days): 58±8%
water solubility: ~10 µg/mL (≈ 26.9 µM)
pH of maximum stability [17]: < 4
half-life [18]: approximately 6 h
terminal half-life [19]: 7 h
total apparent clearance [20, 29]: 0.163 ± 0.0967 mL/min/kg
median half-life ([20]; 35 patients, one-compartment model): approximately 56.1 h
median apparent total clearance ([20]; humans): 0.17 mL/min/kg
median pseudo-steady-state apparent volume of distribution ([20]; humans): 0.64 L/kg
median half-life [21]: 39.3 h
dose up to which plasma levels increased (plateau of steady-state concentration above) [22]: up to 50 mg/m^2/day
dose with histopathological lesions in the small intestine and thymus ([23]; rats): 100 mg/kg/day
plasma level at which dose-limiting gastrointestinal toxicities occurred ([23]; rats (stated for both species)): ≥ 15000 ng/mL
adverse effects or weight loss [24]: no adverse effects or weight loss
dose resulting in mortalities [25]: 100 mg/kg/day
patients experiencing some phototoxicity ([26]; 50 mg/m^2/day, sun-block mandatory): over 50%
cases of drug-induced lupus [26, 29]: three cases
cases of reversible sideroblastic anemia [26, 29]: three cases
maximum tolerated dose (MTD) [26, 29]: 98 mg/m^2/day
change between pre- and post-treatment levels of MMP-2 or MMP-9 ([26]; 35 patients, overall): no significant change
sunburn (photosensitivity), dose-limiting ([26]; highest dose 98 mg/m^2/day, despite prophylactic measures): all 18 patients developed sunburn
musculoskeletal side effects ([26]; human trials): no reports
disease-stabilization ([26]; three out of seven patients with tumors of non-epithelial origin): 43%
median duration of response ([27]; 18 KS patients): > 25 weeks
median time to response ([27]; 18 KS patients): 4 weeks
overall response rate ([27]; 18 KS patients, one complete and seven partial responses): 44%
doses not tolerated ([27]; KS patients): > 50 mg/m^2/day
evaluable patients with decrease in plasma concentration of MMP-2 ([27]; KS patients): 61%
evaluable patients with decrease in plasma concentration of MMP-9 ([27]; KS patients): 37%
doses reasonably well tolerated ([27]; KS patients, dose levels 25, 50 and 70): up to 70 mg/m^2/day
increase of MMP-2 level from baseline ([27]; non-responding patients): 300 ng/mL
decrease of MMP-2 level from baseline ([27]; responding patients): 56 ng/mL
